According to ChEMBL document CHEMBL1201862, “PubChem BioAssay data set” (2004):
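Growth conditions: 96-well plates. Treatment: test compound, 48 hours, 5 concentrations. Analysis: linear interpolation between bracketing concentrations; unreached endpoints set to highest concentration. GI50 is the concentration that inhibits growth by half.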 Activity calls are given as the source filed them. Cut-off read from the data, not from the text of the source: active = GI50 up to about 1.1 µM and inactive = higher.

Key:
Experiment in all cases: NCI-60 cell line screen, 48 h
TK-10 = tested on: TK-10
OVCAR-5 = tested on: OVCAR-5
MOLT-4 = tested on: MOLT-4
ACHN = tested on: ACHN
HCT-15 = tested on: HCT-15
SN12C = tested on: SN12C
HT-29 = tested on: HT-29
NCI-H23 = tested on: NCI-H23
RPMI-8226 = tested on: RPMI-8226
KM12 = tested on: KM12
SR = tested on: SR
CAKI-1 = tested on: CAKI-1
SNB-75 = tested on: SNB-75
OVCAR-8 = tested on: OVCAR-8
SNB-19 = tested on: SNB-19
SK-OV-3 = tested on: SK-OV-3
SF-295 = tested on: SF-295
LOX IMVI = tested on: LOX IMVI
HCT-116 = tested on: HCT-116

Row | Structure (SMILES) | GI50 (TK-10) | GI50 (OVCAR-5) | GI50 (MOLT-4) | GI50 (ACHN) | GI50 (HCT-15) [µM] | GI50 (SN12C) | GI50 (HT-29) | GI50 (NCI-H23) | GI50 (RPMI-8226) | GI50 (KM12) | GI50 (SR) | GI50 (CAKI-1) | GI50 (SNB-75) | GI50 (OVCAR-8) | GI50 (SNB-19) | GI50 (SK-OV-3) | GI50 (SF-295) | GI50 (LOX IMVI) | GI50 (HCT-116)
1 | O=C(/C=C/c1c(O)ccc2ccccc12)c1ccccc1 | > 100 µM (inactive) | > 100 µM (inactive) | > 100 µM (inactive) | > 100 µM (inactive) | > 100 | > 100 µM (inactive) | 15.7 µM (inactive) | 95.7 µM (inactive) | 27 µM (inactive) | > 100 µM (inactive) | > 100 µM (inactive) | > 100 µM (inactive) | 0.413 µM (active) | > 100 µM (inactive) | > 100 µM (inactive) | > 100 µM (inactive) | > 100 µM (inactive) | 19.3 µM (inactive) | > 100 µM (inactive)
2 | COc1ccc(C2=Nc3ccccc3NC(=O)C2)cc1 | 27.9 µM (inactive) | > 100 µM (inactive) | > 100 µM (inactive) | 41.2 µM (inactive) | 51.9 | 43.3 µM (inactive) | > 100 µM (inactive) | 26.9 µM (inactive) |  | > 100 µM (inactive) | > 100 µM (inactive) | > 100 µM (inactive) | 23.8 µM (inactive) | 40.5 µM (inactive) | 28.2 µM (inactive) | 21.5 µM (inactive) | 23.1 µM (inactive) | 18.3 µM (inactive) | 20.5 µM (inactive)
3 | CC1(C)CCc2cc3c(cc2O1)OCC1c2cc4c(cc2OC31)OCO4 (stereo not drawn) | 99.8 µM (inactive) | > 100 µM (inactive) | > 100 µM (inactive) | > 100 µM (inactive) | 63 | > 100 µM (inactive) | > 100 µM (inactive) | > 100 µM (inactive) | > 100 µM (inactive) | > 100 µM (inactive) | > 100 µM (inactive) | > 100 µM (inactive) | > 100 µM (inactive) | > 100 µM (inactive) | > 100 µM (inactive) | > 100 µM (inactive) | > 100 µM (inactive) | > 100 µM (inactive) | > 100 µM (inactive)
4 | C[N+]1(C)C/C(=C\c2ccncc2)C(=O)/C(=C/c2ccncc2)C1 | > 100 µM (inactive) | > 100 µM (inactive) | > 100 µM (inactive) | > 100 µM (inactive) | > 100 | > 100 µM (inactive) | > 100 µM (inactive) |  | 63.8 µM (inactive) | > 100 µM (inactive) | > 100 µM (inactive) | > 100 µM (inactive) | > 100 µM (inactive) | > 100 µM (inactive) | > 100 µM (inactive) | > 100 µM (inactive) | > 100 µM (inactive) | > 100 µM (inactive) | 38.5 µM (inactive)
5 | Cc1cc2c(c(N)c1C)C(=O)c1ccccc1C2=O | 37.5 µM (inactive) | > 100 µM (inactive) | > 100 µM (inactive) | 14.1 µM (inactive) | 45.8 | 49.1 µM (inactive) | 49.5 µM (inactive) |  | 52.1 µM (inactive) | 11.1 µM (inactive) | > 100 µM (inactive) | 14.5 µM (inactive) | 12.5 µM (inactive) | 20 µM (inactive) | 27.9 µM (inactive) | 17.5 µM (inactive) | 27.4 µM (inactive) | 17.7 µM (inactive) | 19 µM (inactive)
6 | CCCC(=O)OC[n+]1ccc2c(C)c3[nH]c4ccccc4c3c(C)c2c1 | 1.71 µM (inactive) | 1.04 µM (active) | 0.0661 µM (active) | 0.504 µM (active) | 0.274 | 0.404 µM (active) | > 100 µM (inactive) | 0.064 µM (active) | 0.0374 µM (active) | 0.377 µM (active) | 0.0681 µM (active) | 1.29 µM (inactive) | > 100 µM (inactive) | 0.394 µM (active) | 0.935 µM (active) | 0.547 µM (active) | 0.43 µM (active) | 0.341 µM (active) | 0.118 µM (active)
7 | Cc1cc2cc(Cl)ccc2nc1C(=O)c1ccccc1 | > 100 µM (inactive) | > 100 µM (inactive) | > 100 µM (inactive) | > 100 µM (inactive) | > 100 | > 100 µM (inactive) |  | > 100 µM (inactive) | > 100 µM (inactive) | > 100 µM (inactive) | > 100 µM (inactive) | > 100 µM (inactive) | 21.3 µM (inactive) | > 100 µM (inactive) | > 100 µM (inactive) |  | 27.8 µM (inactive) | > 100 µM (inactive) | > 100 µM (inactive)
8 | COC(=O)c1onc(-c2c(OC)cc(OC)cc2OC)c1C(=O)OC | > 100 µM (inactive) | > 100 µM (inactive) | > 100 µM (inactive) | > 100 µM (inactive) | > 100 |  | > 100 µM (inactive) | > 100 µM (inactive) | > 100 µM (inactive) | > 100 µM (inactive) | > 100 µM (inactive) | > 100 µM (inactive) | > 100 µM (inactive) | > 100 µM (inactive) | > 100 µM (inactive) | > 100 µM (inactive) | > 100 µM (inactive) | > 100 µM (inactive) | > 100 µM (inactive)
9 | O=C(CSCC(=O)N/N=C\c1cccc([N+](=O)[O-])c1)N/N=C\c1cccc([N+](=O)[O-])c1 | 17.4 µM (inactive) |  | > 100 µM (inactive) | 14 µM (inactive) | 25.5 | 68.9 µM (inactive) | > 100 µM (inactive) | 14.2 µM (inactive) | > 100 µM (inactive) | > 100 µM (inactive) | 69 µM (inactive) | 23.3 µM (inactive) | 37.1 µM (inactive) | 31.3 µM (inactive) | 18 µM (inactive) | 52.1 µM (inactive) | 11.5 µM (inactive) | 53.1 µM (inactive) | 27.7 µM (inactive)
10 | CNS(=O)(=O)NNS(=O)(=O)c1ccc(Cl)cc1 | > 100 µM (inactive) | > 100 µM (inactive) | > 100 µM (inactive) | > 100 µM (inactive) |  | > 100 µM (inactive) | > 100 µM (inactive) | > 100 µM (inactive) | > 100 µM (inactive) | > 100 µM (inactive) | > 100 µM (inactive) | > 100 µM (inactive) |  | > 100 µM (inactive) | > 100 µM (inactive) | > 100 µM (inactive) | > 100 µM (inactive) |  | > 100 µM (inactive)
11 | C[C@H]1CCC2C(CN3CCCCC3)C(=O)OC2[C@]2(C)C(=O)CC(N3CCCCC3)C12O (stereo partly drawn) | 16.6 µM (inactive) | 10.7 µM (inactive) | 2.21 µM (inactive) | 2.8 µM (inactive) |  | 3.75 µM (inactive) | 3.9 µM (inactive) | 4.3 µM (inactive) | 2.71 µM (inactive) | 3.09 µM (inactive) | 2.49 µM (inactive) | 15.7 µM (inactive) | 11.3 µM (inactive) | 1.79 µM (inactive) | 20 µM (inactive) | 28.6 µM (inactive) | 9.1 µM (inactive) |  | 2.94 µM (inactive)
12 | CCOC(=N)CC(=O)Nc1ccc(Cl)cc1 | > 100 µM (inactive) | > 100 µM (inactive) | > 100 µM (inactive) | > 100 µM (inactive) | > 100 | > 100 µM (inactive) | > 100 µM (inactive) | > 100 µM (inactive) |  | > 100 µM (inactive) | > 100 µM (inactive) | > 100 µM (inactive) | > 100 µM (inactive) | > 100 µM (inactive) | > 100 µM (inactive) | > 100 µM (inactive) | > 100 µM (inactive) | > 100 µM (inactive) | > 100 µM (inactive)
13 | C=C1CC(c2ccc(O)c(OC)c2)Oc2c(OC)cccc21 (stereo not drawn) | 99.3 µM (inactive) | 65.5 µM (inactive) | 25.1 µM (inactive) | 47.4 µM (inactive) | 34 | 34.4 µM (inactive) | 55 µM (inactive) | 32.9 µM (inactive) |  | 33.7 µM (inactive) | 19.7 µM (inactive) | 34.8 µM (inactive) | 39.2 µM (inactive) | 31.1 µM (inactive) | 44.9 µM (inactive) | > 100 µM (inactive) | 80.5 µM (inactive) |  | 31.2 µM (inactive)
14 | COc1cc(C2C(Cl)C(=O)N2NC(=O)Cc2ccccc2)cc(Br)c1O (stereo not drawn) | > 100 µM (inactive) | > 100 µM (inactive) | 50.6 µM (inactive) | > 100 µM (inactive) | 51.8 | > 100 µM (inactive) | > 100 µM (inactive) | 76.9 µM (inactive) | 42.5 µM (inactive) | > 100 µM (inactive) | 56.6 µM (inactive) | > 100 µM (inactive) | 64.9 µM (inactive) | > 100 µM (inactive) | > 100 µM (inactive) | > 100 µM (inactive) | > 100 µM (inactive) | 74.3 µM (inactive) | 71.4 µM (inactive)
15 | C/C(CN1C(=O)c2ccccc2C1=O)=N\NS(=O)(=O)c1ccc(F)cc1 | > 100 µM (inactive) | > 100 µM (inactive) | > 100 µM (inactive) | > 100 µM (inactive) | > 100 | > 100 µM (inactive) | > 100 µM (inactive) | > 100 µM (inactive) | > 100 µM (inactive) | > 100 µM (inactive) | > 100 µM (inactive) | > 100 µM (inactive) | > 100 µM (inactive) | > 100 µM (inactive) | > 100 µM (inactive) | > 100 µM (inactive) | > 100 µM (inactive) | > 100 µM (inactive) | > 100 µM (inactive)
16 | CC(=O)Nc1ccc(/C=c2\sc3nnc(-c4cccnc4)n3c2=O)cc1 | 21.6 µM (inactive) | 27.5 µM (inactive) | 19.7 µM (inactive) | 14 µM (inactive) | 17.6 | 14.4 µM (inactive) | 18.5 µM (inactive) | 15.8 µM (inactive) |  | 16.8 µM (inactive) | 17.3 µM (inactive) | 17.9 µM (inactive) | 22.2 µM (inactive) | 17.6 µM (inactive) | 24.2 µM (inactive) | 24 µM (inactive) | 36.4 µM (inactive) | 16.5 µM (inactive) | 15.6 µM (inactive)
